“And” between values parts separate entries of the source, which are not always exact repeats. Equal entries are not always repeated. The source made the active and inactive calls. The rule behind the calls is not given here.
Key:
Thymidine kinase = target: T1, Thymidine kinase (Macacine herpesvirus 1, UniProt A3RLP8)
T1 sequence (A3RLP8 whole entry): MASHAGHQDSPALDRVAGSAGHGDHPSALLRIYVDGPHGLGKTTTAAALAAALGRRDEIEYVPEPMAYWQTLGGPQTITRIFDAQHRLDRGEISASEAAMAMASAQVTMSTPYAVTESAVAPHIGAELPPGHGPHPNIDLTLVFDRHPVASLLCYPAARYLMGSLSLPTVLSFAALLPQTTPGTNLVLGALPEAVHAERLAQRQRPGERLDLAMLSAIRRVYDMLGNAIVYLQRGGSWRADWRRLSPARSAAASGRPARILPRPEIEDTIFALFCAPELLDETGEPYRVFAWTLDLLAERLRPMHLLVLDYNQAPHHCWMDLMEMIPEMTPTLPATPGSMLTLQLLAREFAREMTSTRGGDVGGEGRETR

[1] = target: T2, Thymidine kinase (Macacine herpesvirus 1) (UniProt A3RLP8); experiment: Activity of Herpes B virus recombinant thymidine kinase at 100 uM; conditions: Macacine alphaherpesvirus 1
T2 sequence (whole entry): T1 sequence (A3RLP8 whole entry)

Human alphaherpesvirus 1 = experiment: microbe, parasite or virus in culture; format: functional, organism-based; conditions: Human alphaherpesvirus 1, F, Vero
[2] = test system: Macacine alphaherpesvirus 1; experiment: microbe, parasite or virus in culture; format: functional, organism-based; conditions: Macacine alphaherpesvirus 1, Vero
[3] = test system: Macacine alphaherpesvirus 1; experiment: microbe, parasite or virus in culture; format: functional, organism-based; conditions: Macacine alphaherpesvirus 1, Vero; remark: listed apart in the source
[4] = Cytotoxicity against african green monkey Vero cells after 2 days; format: cell-based; conditions: chlorocebus sabaeus
[5] = target: T2, Thymidine kinase (Macacine herpesvirus 1); conditions: Macacine alphaherpesvirus 1; 100 uM
[6] = target: T2, Thymidine kinase (Macacine herpesvirus 1); experiment: Activity of Herpes B virus recombinant thymidine kinase at 1 mM; conditions: Macacine alphaherpesvirus 1
[7] = test system: Macacine alphaherpesvirus 1; experiment: microbe, parasite or virus in culture; format: functional, organism-based; conditions: Macacine alphaherpesvirus 1, Vero; remark: listed apart in the source
[8] = substrate: Cc1cn([C@H]2C[C@H](O)[C@@H](CO)O2)c(=O)[nH]c1=O; conditions: Human alphaherpesvirus 1
[9] = substrate: O=c1[nH]c(Nc2ccccc2)nc2c1ncn2CCCCO; experiment: (§1) Activity of Herpes B virus recombinant thymidine kinase; conditions: Macacine alphaherpesvirus 1
[10] = substrate: Cc1cn([C@H]2C[C@H](O)[C@@H](CO)O2)c(=O)[nH]c1=O; experiment: as §1; conditions: Macacine alphaherpesvirus 1

CCCc1cn([C@H]2C[C@H](O)[C@@H](CO)O2)c(=O)[nH]c1=O
IC50 (Thymidine kinase): 4.2 µM | Activity [1]: 31%

Nc1nc2c(ncn2CCCCO)c(=O)[nH]1
IC50 (Thymidine kinase): 177 µM | Activity [1]: 94%

CCc1cn([C@@H]2C[C@H](O)[C@@H](CO)O2)c(=O)[nH]c1=O
IC50 (Thymidine kinase): 52 µM

O=c1[nH]c(Nc2cccc(C(F)(F)F)c2)nc2nc[nH]c12
IC50 (Thymidine kinase): 3.5 µM

O=c1[nH]c(Nc2ccccc2)nc2c1ncn2CCCCO
EC50 (Human alphaherpesvirus 1): 330 µM | EC50 [2]: > 330 µM | EC50 [3]: > 330 µM | Activity [1]: 200% | CC50 at 48 h [4]: > 660 µM

CN(C)CCCCn1cnc2c(O)nc(Nc3ccccc3)nc21
IC50 (Thymidine kinase): 1.2 µM

Cc1cc(=O)[nH]c(=O)n1[C@@H]1O[C@H](CO)[C@@H](O)[C@H]1O
Activity [5]: inactive

O=c1ccn([C@@H]2O[C@H](CO)[C@H](O)[C@@H]2O)c(=O)[nH]1
Activity [5]: inactive

O=c1[nH]c(=O)n(C2C[C@H](O)[C@@H](CO)O2)cc1/C=C/Br (single isomer, unassigned)
Activity [1]: inactive | Activity [6]: inactive

O=c1[nH]c(=O)n(C2C[C@H](O)[C@@H](CO)O2)cc1I (single isomer, unassigned)
Activity [1]: 94%

Cc1cn([C@H]2C[C@H](O)[C@@H](CO)O2)c(=O)[nH]c1=O (stereo in doubt; form 1)
Activity [1]: 130%

Cc1cn([C@H]2C[C@H](O)[C@@H](CO)O2)c(=O)[nH]c1=O (stereo in doubt; form 2)
Activity [1]: 100%

Nc1nc2c(ncn2COCCO)c(=O)[nH]1 [ACYCLOVIR]
EC50 (Human alphaherpesvirus 1): 1.4 µM | EC50 [2]: 118 µM | EC50 [7]: 47.5 µM | EC50 [3]: 112 µM | Activity [1]: inactive | CC50 at 48 h [4]: > 890 µM | Activity [6]: inactive

O=c1[nH]c(=O)n([C@H]2C[C@H](O)[C@@H](CO)O2)cc1/C=C/Br [BRIVUDINE]
EC50 (Human alphaherpesvirus 1): 0.12 µM | EC50 [2]: > 300 µM | EC50 [3]: > 300 µM | Activity [1]: inactive | CC50 at 48 h [4]: > 600 µM | Activity [6]: inactive

Nc1ccn(C[C@@H](CO)OCP(=O)(O)O)c(=O)n1 [CIDOFOVIR]
EC50 (Human alphaherpesvirus 1): 14.4 µM | EC50 [2]: 21.6 µM | IC50 (Thymidine kinase): 900 µM | EC50 [3]: 28.9 µM | Activity [1]: inactive | CC50 at 48 h [4]: > 720 µM | Activity [6]: inactive

CCc1cn([C@H]2C[C@H](O)[C@@H](CO)O2)c(=O)[nH]c1=O [EDOXUDINE]
EC50 (Human alphaherpesvirus 1): 2.1 µM | EC50 [2]: 48 µM | IC50 (Thymidine kinase): 0.15 µM | EC50 [7]: 13.3 µM | EC50 [3]: 37.4 µM | Activity [1]: 82% | CC50 at 48 h [4]: > 780 µM

O=C(O)P(=O)(O)O [FOSCARNET]
EC50 (Human alphaherpesvirus 1): 250 µM | EC50 [2]: 250 µM | EC50 [3]: > 500 µM | CC50 at 48 h [4]: > 1 µM

Nc1nc(O)c2ncn(COC(CO)CO)c2n1 [GANCICLOVIR]
IC50 (Thymidine kinase): 800 µM | CC50 at 48 h [4]: 666 µM

Nc1nc2c(ncn2COC(CO)CO)c(=O)[nH]1 [GANCICLOVIR]
EC50 (Human alphaherpesvirus 1): 0.7 µM | EC50 [2]: 23.5 µM | EC50 [7]: 19.2 µM | EC50 [3]: 14.5 µM | Activity [1]: inactive | Activity [6]: inactive

O=c1[nH]c(=O)n([C@H]2C[C@H](O)[C@@H](CO)O2)cc1I [IDOXURIDINE]
EC50 (Human alphaherpesvirus 1): 2.8 µM | EC50 [2]: 8.5 µM | EC50 [3]: 11.2 µM | Activity [1]: 58% | CC50 at 48 h [4]: 6.8 µM

Nc1nc(O)c2ncn(CCC(CO)CO)c2n1 [PENCICLOVIR]
EC50 (Human alphaherpesvirus 1): 4.7 µM | EC50 [2]: 25.3 µM | EC50 [7]: 17.3 µM | EC50 [3]: 17 µM | Activity [1]: 72%

Nc1nc2c(ncn2CCC(CO)CO)c(=O)[nH]1 [PENCICLOVIR]
IC50 (Thymidine kinase): 84.4 µM | CC50 at 48 h [4]: > 790 µM

O=c1[nH]c(=O)n([C@H]2C[C@H](O)[C@@H](CO)O2)cc1C(F)(F)F [TRIFLURIDINE]
EC50 (Human alphaherpesvirus 1): < 1.7 µM | EC50 [2]: 3.4 µM | IC50 (Thymidine kinase): 2 µM | EC50 [3]: 1.7 µM | Activity [1]: 55% | CC50 at 48 h [4]: 50.6 µM

Nc1ncnc2c1ncn2[C@@H]1O[C@H](CO)[C@@H](O)[C@@H]1O [VIDARABINE]
EC50 (Human alphaherpesvirus 1): 7 µM | EC50 [2]: 35 µM | EC50 [3]: 28 µM | Activity [5]: inactive | CC50 at 48 h [4]: 38 µM

B1: Thymidine kinase (Human alphaherpesvirus 1), Q9QNF7 (protein)
chain: MASYPCHQHASAFDQAARSRGHSNRRTALRPRRQQEATEVRLEQKMPTLLRVYIDGPHGMGKTTTTQLLVALGSRDDIVYVPEPMTYWQVLGASETIANIYTTQHRLDQGEISAGDAAVVMTSAQITMGMPYAVTDAVLAPHIGGEAGSSHAPPPALTLIFDRHPIAALLCYPAARYLMGSMTPQAVLAFVALIPPTLPGTNIVLGALPEDRHIDRLAKRQRPGERLDLAMLAAIRRVYGLLANTVRYLQGGGSWREDWGQLSGTAVPPQGAEPQSNAGPRPHIGDTLFTLFRAPELLAPNGDLYNVFAWALDVLAKRLRPMHVFILDYDQSPAGCRDALLQLTSGMVQTHVTTPGSIPTICDLARTFAREMGEAN
Km [8]: 1 µM

B2: Thymidine kinase (Macacine herpesvirus 1), A3RLP8 (protein)
chain: T1 sequence (A3RLP8 whole entry)
Km [9]: 7.4 µM | Vmax (nmol/hr/microg) [9]: 3.9 | Km [10]: 0.7 µM and 0.65 µM | Vmax (nmol/hr/microg) [10]: 0.2 and 0.15
